In patent US20260256792A1, “TREATMENT OF CHRONIC SPONTANEOUS URTICARIA BY ADMINISTERING (R)-2-[3-[4-AMINO-3-(2-FLUORO-4-PHENOXY-PHENYL)PYRAZOLO[3,4-D]PYRIMIDIN-1-YL]PIPERIDINE-1-CARBONYL]-4-METHYL-4-[4-(OXETAN-3-YL)PIPERAZIN-1-YL]PENT-2-ENENITRILE” (priority 2023, published 2026):

Test system: moderate-to-severe chronic spontaneous urticaria (CSU)
Test: Phase 2 CSU study: urticaria activity score over 7 days (UAS7)
Assay type: in vivo, human
Conditions: Omalizumab-Naïve
Text: The study comprises a 12 week, randomized, double-blind, placebo-controlled, multi-center, dose-ranging efficacy and safety phase, followed by a 40 week open label extension (OLE) phase (see FIG. 1). The study consists of three phases and an optional OLE phase. […] Clinically, CSU is characterized by the spontaneous and recurrent appearance of pruritic hives. The proposed primary endpoints were the UAS7 at Week 12 in EU and EU reference countries and the ISS7 in the US. Regardless of where a participant was from, all assessments were the same. The UAS7 score is a composite score containing both the HSS7 and the ISS7. This allowed a global assessment of the two key components of urticaria: hives and itch. […] The UAS is a validated PRO measure. […] The daily UAS scores range from 0 to 6 point/day. […] Patients were to complete the UAS using the e-diary. […] The following secondary endpoints were to be analyzed using the same approach as for the primary endpoint: • Change from baseline in UAS7 at Week 4 • Change from baseline in UAS7 at Week 12 (for US and US reference countries) • Change from baseline in ISS7 at Week 12 (except US and US reference countries) • Change from baseline in HSS7 at Week 12 The following responder secondary endpoints were to be analyzed using the Cochran-Mantel-Haenszel test adjusted by region: • Proportion of participants with UAS7<6 at Week 12 • Proportion of participants with UAS7=0 at Week 12 Participants who received selected prohibited medications and/or rescue medications were to be considered as non-responders for time points after the medication usage. For other participants, all available data including those collected during the off-treatment period were to be used to determine the responder/non-responder status. Missing data were to be considered as non-responders.

[1] = Baseline Eosinophils (10^9/L) ≥0.3, 400 mg BID
[2] = Baseline Eosinophils (10^9/L) ≥0.3, 400 mg QPM
[3] = Baseline Eosinophils (10^9/L) ≥0.3, 400 mg TID
[4] = Baseline H1-antihistamines dose 1-fold, 400 mg BID
[5] = Baseline H1-antihistamines dose 1-fold, 400 mg QPM
[6] = Baseline H1-antihistamines dose 1-fold, 400 mg TID
[7] = Baseline H1-antihistamines dose 2 to 4-fold standard dose, 400 mg BID
[8] = Baseline H1-antihistamines dose 2 to 4-fold standard dose, 400 mg QPM
[9] = Baseline H1-antihistamines dose 2 to 4-fold standard dose, 400 mg TID
[10] = Baseline ISS7 score <13, 400 mg BID
[11] = Baseline ISS7 score <13, 400 mg QPM
[12] = Baseline ISS7 score <13, 400 mg TID
[13] = Baseline ISS7 score ≥13, 400 mg BID
[14] = Baseline ISS7 score ≥13, 400 mg QPM
[15] = Baseline ISS7 score ≥13, 400 mg TID
[16] = Baseline Total IgE (IU/mL) <100, 400 mg BID
[17] = Baseline Total IgE (IU/mL) <100, 400 mg QPM
[18] = Baseline Total IgE (IU/mL) <100, 400 mg TID
[19] = Baseline Total IgE (IU/mL) <300, 400 mg BID
[20] = Baseline Total IgE (IU/mL) <300, 400 mg QPM
[21] = Baseline Total IgE (IU/mL) <300, 400 mg TID
[22] = Baseline Total IgE (IU/mL) ≥100, 400 mg BID
[23] = Baseline Total IgE (IU/mL) ≥100, 400 mg QPM
[24] = Baseline Total IgE (IU/mL) ≥100, 400 mg TID

## CC(C)(C=C(C#N)C(=O)N1CCC[C@@H](n2nc(-c3ccc(Oc4ccccc4)cc3F)c3c(N)ncnc32)C1)N1CCN(C2COC2)CC1 [rilzabrutinib, (R)-2-[3-[4-amino-3-(2-fluoro-4-phenoxy-phenyl)pyrazolo[3,4-d]pyrimidin-1-yl]piperidine-1-carbonyl]-4-methyl-4-[4-(oxetan-3-yl)piperazin-1-yl]pent-2-enenitrile]
Baseline Eosinophils (10^9/L) ≥0.165 (Median), 400 mg TID
  Change from Baseline in UAS7 at Week 12: Mean (SD): −16.50 (9.30)
[1]
  Change from Baseline in UAS7 at Week 12: LS Mean Diff vs. placebo (95% CI): −3.40 (−16.66, 9.86)
  Change from Baseline in UAS7 at Week 12: Mean (SD): −13.11 (12.32)
[2]
  Change from Baseline in UAS7 at Week 12: LS Mean (SE): −9.66 (4.84)
  Change from Baseline in UAS7 at Week 12: LS Mean Diff vs. placebo (95% CI): −2.00 (−16.22, 12.21)
  Change from Baseline in UAS7 at Week 12: Mean (SD): −9.69 (12.55)
[3]
  Change from Baseline in UAS7 at Week 12: LS Mean (SE): −13.16 (4.09)
  Change from Baseline in UAS7 at Week 12: LS Mean Diff vs. placebo (95% CI): −5.51 (−18.58, 7.57)
  Change from Baseline in UAS7 at Week 12: Mean (SD): −14.65 (7.48)
[4]
  Change from Baseline in UAS7 at Week 12: LS Mean (SE): −15.75 (3.11)
  Change from Baseline in UAS7 at Week 12: LS Mean Diff vs. placebo (95% CI): −3.48 (−11.69, 4.73)
  Change from Baseline in UAS7 at Week 12: Mean (SD): −18.22 (14.88)
[5]
  Change from Baseline in UAS7 at Week 12: LS Mean (SE): −7.64 (2.73)
  Change from Baseline in UAS7 at Week 12: LS Mean Diff vs. placebo (95% CI): 4.64 (−2.96, 12.23)
  Change from Baseline in UAS7 at Week 12: Mean (SD): −8.61 (9.50)
[6]
  Change from Baseline in UAS7 at Week 12: LS Mean (SE): −14.92 (2.59)
  Change from Baseline in UAS7 at Week 12: LS Mean Diff vs. placebo (95% CI): −2.65 (−10.05, 4.76)
[7]
  Change from Baseline in UAS7 at Week 12: LS Mean (SE): −12.98 (2.55)
  Change from Baseline in UAS7 at Week 12: LS Mean Diff vs. placebo (95% CI): −6.42 (−13.94, 1.10)
[8]
  Change from Baseline in UAS7 at Week 12: LS Mean (SE): −10.93 (2.77)
  Change from Baseline in UAS7 at Week 12: LS Mean Diff vs. placebo (95% CI): −4.37 (−12.30, 3.56)
  Change from Baseline in UAS7 at Week 12: Mean (SD): −12.81 (9.00)
[9]
  Change from Baseline in UAS7 at Week 12: LS Mean (SE): −20.96 (3.15)
  Change from Baseline in UAS7 at Week 12: LS Mean Diff vs. placebo (95% CI): −14.41 (−22.75, −6.07)
  Change from Baseline in UAS7 at Week 12: Mean (SD): −24.73 (10.10)
[10]
  Change from Baseline in UAS7 at Week 12: LS Mean (SE): −9.30 (4.02)
  Change from Baseline in UAS7 at Week 12: LS Mean Diff vs. placebo (95% CI): −4.39 (−14.52, 5.74)
  Change from Baseline in UAS7 at Week 12: Mean (SD): −10.78 (8.33)
[11]
  Change from Baseline in UAS7 at Week 12: LS Mean (SE): −3.27 (5.21)
  Change from Baseline in UAS7 at Week 12: LS Mean Diff vs. placebo (95% CI): 1.64 (−10.30, 13.58)
  Change from Baseline in UAS7 at Week 12: Mean (SD): −5.83 (3.06)
[12]
  Change from Baseline in UAS7 at Week 12: LS Mean (SE): 9.24 (6.48)
  Change from Baseline in UAS7 at Week 12: LS Mean Diff vs. placebo (95% CI): −4.33 (−18.30, 9.63)
  Change from Baseline in UAS7 at Week 12: Mean (SD): −10.75 (6.01)
[13]
  Change from Baseline in UAS7 at Week 12: LS Mean (SE): −15.07 (2.33)
  Change from Baseline in UAS7 at Week 12: LS Mean Diff vs. placebo (95% CI): −4.32 (−10.91, 2.27)
  Change from Baseline in UAS7 at Week 12: Mean (SD): −15.60 (12.97)
[14]
  Change from Baseline in UAS7 at Week 12: LS Mean Diff vs. placebo (95% CI): 0.28 (−6.08, 6.64)
  Change from Baseline in UAS7 at Week 12: Mean (SD): −10.91 (9.59)
[15]
  Change from Baseline in UAS7 at Week 12: LS Mean (SE): −18.70 (2.15)
  Change from Baseline in UAS7 at Week 12: LS Mean Diff vs. placebo (95% CI): −7.95 (−14.32, −1.57)
[16]
  Change from Baseline in UAS7 at Week 12: LS Mean (SE): −15.72 (3.24)
  Change from Baseline in UAS7 at Week 12: LS Mean Diff vs. placebo (95% CI): −8.43 (−17.18, 0.33)
  Change from Baseline in UAS7 at Week 12: Mean (SD): −16.26 (11.38)
[17]
  Change from Baseline in UAS7 at Week 12: LS Mean (SE): 8.49 (3.25)
  Change from Baseline in UAS7 at Week 12: LS Mean Diff vs. placebo (95% CI): −1.19 (−10.05, 7.67)
[18]
  Change from Baseline in UAS7 at Week 12: LS Mean (SE): −17.40 (3.01)
  Change from Baseline in UAS7 at Week 12: LS Mean Diff vs. placebo (95% CI): −10.10 (−18.54, −1.65)
  Change from Baseline in UAS7 at Week 12: Mean (SD): −21.03 (13.37)
[19]
  Change from Baseline in UAS7 at Week 12: LS Mean (SE): −14.78 (2.46)
  Change from Baseline in UAS7 at Week 12: LS Mean Diff vs. placebo (95% CI): −6.72 (−13.41, −0.03)
  Change from Baseline in UAS7 at Week 12: Mean (SD): 15.35 (12.23)
[20]
  Change from Baseline in UAS7 at Week 12: LS Mean (SE): −9.07 (2.38)
  Change from Baseline in UAS7 at Week 12: LS Mean Diff vs. placebo (95% CI): −1.01 (−7.60, 5.59)
  Change from Baseline in UAS7 at Week 12: Mean (SD): −10.61 (9.62)
[21]
  Change from Baseline in UAS7 at Week 12: LS Mean (SE): −18.19 (2.47)
  Change from Baseline in UAS7 at Week 12: LS Mean Diff vs. placebo (95% CI): −10.13 (−16.83, −3.44)
  Change from Baseline in UAS7 at Week 12: Mean (SD): −20.66 (12.39)
[22]
  Change from Baseline in UAS7 at Week 12: LS Mean (SE): −13.17 (2.55)
  Change from Baseline in UAS7 at Week 12: LS Mean Diff vs. placebo (95% CI): −1.67 (−8.84, 5.51)
  Change from Baseline in UAS7 at Week 12: Mean (SD): −13.19 (12.80)
[23]
  Change from Baseline in UAS7 at Week 12: LS Mean (SE): −8.97 (2.49)
  Change from Baseline in UAS7 at Week 12: LS Mean Diff vs. placebo (95% CI): 2.53 (−4.52, 9.59)
  Change from Baseline in UAS7 at Week 12: Mean (SD): −9.90 (9.51)
[24]
  Change from Baseline in UAS7 at Week 12: LS Mean (SE): −17.08 (2.69)
  Change from Baseline in UAS7 at Week 12: LS Mean Diff vs. placebo (95% CI): −5.57 (−12.83, 1.69)
